# PubChem BioAssay AID1963833 (Molecular Pharmacology Branch, DTP, NCI, 2024)
# Tested on: 883617-216-R-J1-PDC complex spheroid viability
# Assay: Anticancer human tumor 883617-216-R-J1-PDC patient-derived bladder carcinoma cell line growth inhibition [POLQ]
# Conditions: for IC50: curve of first compound; for viability, T/C: stronger effect = lower value
# Procedure, shortened: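 Growth inhibition in 3D: complex spheroids (tumor PDC, HUVEC, MSC) treated with POLQ inhibitor combinations; where Cmax unknown, highest tested concentration 10 microM, except SN-38 at 1 microM.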
# [1] = second compound 0.0316 µM, first compound 0.0316 µM
# [2] = second compound 0.0316 µM, first compound 0.1 µM
# [3] = second compound 0.0316 µM, first compound 0.316 µM
# [4] = second compound 0.0316 µM, first compound 1 µM
# [5] = second compound 0.0316 µM, first compound 3.16 µM
# [6] = second compound 0.0316 µM, first compound 10 µM
# [7] = second compound 0.1 µM, first compound 0.0316 µM
# [8] = second compound 0.1 µM, first compound 0.1 µM
# [9] = second compound 0.1 µM, first compound 0.316 µM
# [10] = second compound 0.1 µM, first compound 1 µM
# [11] = second compound 0.1 µM, first compound 3.16 µM
# [12] = second compound 0.1 µM, first compound 10 µM
# [13] = second compound 0.316 µM, first compound 0.0316 µM
# [14] = second compound 0.316 µM, first compound 0.1 µM
# [15] = second compound 0.316 µM, first compound 0.316 µM
# [16] = second compound 0.316 µM, first compound 1 µM
# [17] = second compound 0.316 µM, first compound 3.16 µM
# [18] = second compound 0.316 µM, first compound 10 µM
# [19] = second compound 1 µM, first compound 0.0316 µM
# [20] = second compound 1 µM, first compound 0.1 µM
# [21] = second compound 1 µM, first compound 0.316 µM
# [22] = second compound 1 µM, first compound 1 µM
# [23] = second compound 1 µM, first compound 3.16 µM
# [24] = second compound 1 µM, first compound 10 µM
# [25] = second compound 3.16 µM, first compound 0.0316 µM
# [26] = second compound 3.16 µM, first compound 0.1 µM
# [27] = second compound 3.16 µM, first compound 0.316 µM
# [28] = second compound 3.16 µM, first compound 1 µM
# [29] = second compound 3.16 µM, first compound 3.16 µM
# [30] = second compound 3.16 µM, first compound 10 µM
# [31] = second compound 10 µM, first compound 0.0316 µM
# [32] = second compound 10 µM, first compound 0.1 µM
# [33] = second compound 10 µM, first compound 0.316 µM
# [34] = second compound 10 µM, first compound 1 µM
# [35] = second compound 10 µM, first compound 3.16 µM
# [36] = second compound 10 µM, first compound 10 µM
# 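Further: spheroids exposed to compounds for seven days before readout.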
# 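Wherever viability, T/C is given: 100% = DMSO vehicle control viability.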
smiles,measurement,setting,value
CNCc1ccc(-c2[nH]c3cc(F)cc4c3c2CCNC4=O)cc1 + COC1C(OC(N)=O)C(O)C(Oc2ccc3c(O)c(NC(=O)c4ccc(O)c(CC=C(C)C)c4)c(=O)oc3c2C)OC1(C)C,IC50,second compound 0.0316 µM,> 10000 nM
same,IC50,second compound 0.1 µM,> 10000 nM
same,IC50,second compound 0.316 µM,> 10000 nM
same,IC50,second compound 1 µM,> 10000 nM
same,IC50,second compound 3.16 µM,> 10000 nM
same,IC50,second compound 10 µM,> 10000 nM
same,"viability, T/C",[1],109%
same,"viability, T/C",[2],104%
same,"viability, T/C",[3],101%
same,"viability, T/C",[4],97.9%
same,"viability, T/C",[5],95.3%
same,"viability, T/C",[6],80.7%
same,"viability, T/C",[7],107%
same,"viability, T/C",[8],97.3%
same,"viability, T/C",[9],107%
same,"viability, T/C",[10],101%
same,"viability, T/C",[11],104%
same,"viability, T/C",[12],98.6%
same,"viability, T/C",[13],116%
same,"viability, T/C",[14],98.9%
same,"viability, T/C",[15],104%
same,"viability, T/C",[16],106%
same,"viability, T/C",[17],103%
same,"viability, T/C",[18],94%
same,"viability, T/C",[19],104%
same,"viability, T/C",[20],104%
same,"viability, T/C",[21],103%
same,"viability, T/C",[22],90.4%
same,"viability, T/C",[23],98%
same,"viability, T/C",[24],87.9%
same,"viability, T/C",[25],103%
same,"viability, T/C",[26],92.8%
same,"viability, T/C",[27],102%
same,"viability, T/C",[28],87.2%
same,"viability, T/C",[29],107%
same,"viability, T/C",[30],92.9%
same,"viability, T/C",[31],110%
same,"viability, T/C",[32],97.2%
same,"viability, T/C",[33],95.4%
same,"viability, T/C",[34],91.9%
same,"viability, T/C",[35],94.7%
same,"viability, T/C",[36],95.6%
COc1ccc([C@@H](O)c2cc(-c3ncnc4cc(N5CCOCC5)ccc34)c(F)cc2Cl)nn1 + COC1C(OC(N)=O)C(O)C(Oc2ccc3c(O)c(NC(=O)c4ccc(O)c(CC=C(C)C)c4)c(=O)oc3c2C)OC1(C)C,IC50,second compound 0.0316 µM,2900 nM
same,IC50,second compound 0.1 µM,1800 nM
same,IC50,second compound 0.316 µM,1940 nM
same,IC50,second compound 1 µM,2440 nM
same,IC50,second compound 3.16 µM,2440 nM
same,IC50,second compound 10 µM,3210 nM
same,"viability, T/C",[1],92.5%
same,"viability, T/C",[2],104%
same,"viability, T/C",[3],94.5%
same,"viability, T/C",[4],77.5%
same,"viability, T/C",[5],47.9%
same,"viability, T/C",[6],39.1%
same,"viability, T/C",[7],98.5%
same,"viability, T/C",[8],82.2%
same,"viability, T/C",[9],104%
same,"viability, T/C",[10],61.3%
same,"viability, T/C",[11],45.2%
same,"viability, T/C",[12],33%
same,"viability, T/C",[13],93.9%
same,"viability, T/C",[14],89.2%
same,"viability, T/C",[15],76.8%
same,"viability, T/C",[16],56.1%
same,"viability, T/C",[17],46%
same,"viability, T/C",[18],28.2%
same,"viability, T/C",[19],108%
same,"viability, T/C",[20],85.8%
same,"viability, T/C",[21],80.8%
same,"viability, T/C",[22],61.3%
same,"viability, T/C",[23],45.1%
same,"viability, T/C",[24],33.1%
same,"viability, T/C",[25],95.9%
same,"viability, T/C",[26],95.2%
same,"viability, T/C",[27],78.3%
same,"viability, T/C",[28],65.5%
same,"viability, T/C",[29],45.4%
same,"viability, T/C",[30],33.3%
same,"viability, T/C",[31],87%
same,"viability, T/C",[32],79.3%
same,"viability, T/C",[33],86.4%
same,"viability, T/C",[34],68.1%
same,"viability, T/C",[35],51.3%
same,"viability, T/C",[36],34.2%
COc1cccc(OCCCN)c1-c1cc(Nc2cnc(C#N)cn2)n[nH]1 + COC1C(OC(N)=O)C(O)C(Oc2ccc3c(O)c(NC(=O)c4ccc(O)c(CC=C(C)C)c4)c(=O)oc3c2C)OC1(C)C,IC50,second compound 0.0316 µM,38.9 nM
same,IC50,second compound 0.1 µM,33.2 nM
same,IC50,second compound 0.316 µM,58.9 nM
same,IC50,second compound 1 µM,24.4 nM
same,IC50,second compound 3.16 µM,21.5 nM
same,IC50,second compound 10 µM,36.5 nM
same,"viability, T/C","second compound 0.0316 µM, first compound 0.00316 µM",83.3%
same,"viability, T/C","second compound 0.0316 µM, first compound 0.01 µM",73.8%
same,"viability, T/C",[1],46.9%
same,"viability, T/C",[2],42.4%
same,"viability, T/C",[3],28.1%
same,"viability, T/C",[4],23.4%
same,"viability, T/C","second compound 0.1 µM, first compound 0.00316 µM",91%
same,"viability, T/C","second compound 0.1 µM, first compound 0.01 µM",76.8%
same,"viability, T/C",[7],46.5%
same,"viability, T/C",[8],40.4%
same,"viability, T/C",[9],27.6%
same,"viability, T/C",[10],27.1%
same,"viability, T/C","second compound 0.316 µM, first compound 0.00316 µM",85.6%
same,"viability, T/C","second compound 0.316 µM, first compound 0.01 µM",67.3%
same,"viability, T/C",[13],66.3%
same,"viability, T/C",[14],37.6%
same,"viability, T/C",[15],32.5%
same,"viability, T/C",[16],30%
same,"viability, T/C","second compound 1 µM, first compound 0.00316 µM",90.8%
same,"viability, T/C","second compound 1 µM, first compound 0.01 µM",69.9%
same,"viability, T/C",[19],42.6%
same,"viability, T/C",[20],35.4%
same,"viability, T/C",[21],27.7%
same,"viability, T/C",[22],27.2%
same,"viability, T/C","second compound 3.16 µM, first compound 0.00316 µM",88.2%
same,"viability, T/C","second compound 3.16 µM, first compound 0.01 µM",62.2%
same,"viability, T/C",[25],41.4%
same,"viability, T/C",[26],37.5%
same,"viability, T/C",[27],39.6%
same,"viability, T/C",[28],27.4%
same,"viability, T/C","second compound 10 µM, first compound 0.00316 µM",92.2%
same,"viability, T/C","second compound 10 µM, first compound 0.01 µM",75.2%
same,"viability, T/C",[31],50.9%
same,"viability, T/C",[32],36.2%
same,"viability, T/C",[33],35%
same,"viability, T/C",[34],25.7%
O=C(c1cc(Cc2n[nH]c(=O)c3ccccc23)ccc1F)N1CCN(C(=O)C2CC2)CC1 + COC1C(OC(N)=O)C(O)C(Oc2ccc3c(O)c(NC(=O)c4ccc(O)c(CC=C(C)C)c4)c(=O)oc3c2C)OC1(C)C,IC50,second compound 0.0316 µM,> 10000 nM
same,IC50,second compound 0.1 µM,> 10000 nM
same,IC50,second compound 0.316 µM,> 10000 nM
same,IC50,second compound 1 µM,> 10000 nM
same,IC50,second compound 3.16 µM,> 10000 nM
same,IC50,second compound 10 µM,> 10000 nM
same,"viability, T/C",[1],106%
same,"viability, T/C",[2],98%
same,"viability, T/C",[3],103%
same,"viability, T/C",[4],99.1%
same,"viability, T/C",[5],72.5%
same,"viability, T/C",[6],62.9%
same,"viability, T/C",[7],91%
same,"viability, T/C",[8],88.5%
same,"viability, T/C",[9],88.9%
same,"viability, T/C",[10],97.4%
same,"viability, T/C",[11],81.6%
same,"viability, T/C",[12],63%
same,"viability, T/C",[13],96.1%
same,"viability, T/C",[14],87.6%
same,"viability, T/C",[15],100%
same,"viability, T/C",[16],92.3%
same,"viability, T/C",[17],78%
same,"viability, T/C",[18],70.3%
same,"viability, T/C",[19],97.4%
same,"viability, T/C",[20],85.5%
same,"viability, T/C",[21],109%
same,"viability, T/C",[22],91.9%
same,"viability, T/C",[23],96.1%
same,"viability, T/C",[24],63.5%
same,"viability, T/C",[25],91.2%
same,"viability, T/C",[26],87.8%
same,"viability, T/C",[27],95.8%
same,"viability, T/C",[28],89%
same,"viability, T/C",[29],79.1%
same,"viability, T/C",[30],65.3%
same,"viability, T/C",[31],94%
same,"viability, T/C",[32],91.6%
same,"viability, T/C",[33],94.8%
same,"viability, T/C",[34],73.3%
same,"viability, T/C",[35],98.7%
same,"viability, T/C",[36],74.5%
